target: Serine/threonine-protein kinase B-raf (Homo sapiens, UniProt P15056); assay: Inhibition of B-Raf (unknown origin) expressed in mouse 3T3 cells co-expressing FLAG-tagged MEK1 assessed as inhibition of MEK1 phosphorylation after 2 hrs by ELISA
Sequence (P15056 whole entry): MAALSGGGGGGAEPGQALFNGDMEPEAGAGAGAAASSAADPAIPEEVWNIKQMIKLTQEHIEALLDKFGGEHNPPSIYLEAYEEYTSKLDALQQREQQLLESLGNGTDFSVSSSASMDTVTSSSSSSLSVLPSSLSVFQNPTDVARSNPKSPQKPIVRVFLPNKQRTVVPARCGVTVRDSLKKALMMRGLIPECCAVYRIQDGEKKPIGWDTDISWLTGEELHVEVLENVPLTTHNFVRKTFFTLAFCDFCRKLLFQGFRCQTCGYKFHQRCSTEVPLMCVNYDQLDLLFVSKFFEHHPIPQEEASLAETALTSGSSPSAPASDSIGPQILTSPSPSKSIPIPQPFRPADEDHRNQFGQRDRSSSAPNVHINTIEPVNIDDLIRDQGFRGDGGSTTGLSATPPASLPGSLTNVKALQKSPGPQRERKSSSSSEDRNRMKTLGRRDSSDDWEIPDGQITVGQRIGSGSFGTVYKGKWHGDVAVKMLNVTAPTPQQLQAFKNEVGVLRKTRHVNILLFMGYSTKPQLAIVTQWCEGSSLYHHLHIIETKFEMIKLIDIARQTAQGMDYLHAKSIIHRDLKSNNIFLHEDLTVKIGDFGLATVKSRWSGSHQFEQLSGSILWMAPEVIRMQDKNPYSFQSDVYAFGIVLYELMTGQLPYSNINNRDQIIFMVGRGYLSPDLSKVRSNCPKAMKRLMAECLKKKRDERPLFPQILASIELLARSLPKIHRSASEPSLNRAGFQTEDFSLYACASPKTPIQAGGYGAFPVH

Row | Structure (SMILES) | IC50 [µM]
1 | Nc1ncc(-c2cccnc2)c2scc(-c3cccc(NC(=O)Nc4ccc(OCc5ccccc5)cc4)c3)c12 | > 10
2 | COc1cccc(NC(=O)Nc2cccc(-c3csc4c(-c5cccnc5)cnc(N)c34)c2)c1 | 0.7
3 | Nc1ncc(-c2cccnc2)c2scc(-c3cccc(NC(=O)NC4CCCCC4)c3)c12 | 4.1
4 | Cc1noc(C)c1NC(=O)Nc1cccc(-c2csc3c(-c4cccnc4)cnc(N)c23)c1 | > 10
5 | Nc1ncc(-c2cccnc2)c2scc(-c3cccc(NC(=O)C4CCCCC4)c3)c12 | > 10
